Test [1] has as its target T1, GPR119 (Homo sapiens, UniProt Q8TDV5).
T1 sequence (Q8TDV5 1-335): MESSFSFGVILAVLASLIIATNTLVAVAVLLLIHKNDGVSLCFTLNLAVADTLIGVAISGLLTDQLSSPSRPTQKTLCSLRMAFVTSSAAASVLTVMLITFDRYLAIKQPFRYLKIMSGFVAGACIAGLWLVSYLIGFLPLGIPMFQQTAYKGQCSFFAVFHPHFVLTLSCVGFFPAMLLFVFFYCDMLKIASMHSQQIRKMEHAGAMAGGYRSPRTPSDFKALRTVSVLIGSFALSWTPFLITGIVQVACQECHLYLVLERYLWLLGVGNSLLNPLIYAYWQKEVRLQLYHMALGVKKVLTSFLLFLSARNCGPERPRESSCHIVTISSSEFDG
Kind of test: cAMP accumulation in heterologous expression system; PathHunter β-arrestin […] recruitment (EC50 =[…]). It is filed as cell-based. (In general: Changes in cAMP serve as a functional read-out for many G protein-coupled receptors.)

For test [2], the target named is T1, GPR119. The test is described as follows: cAMP accumulation in heterologous expression system, positive control agonist. It is filed as cell-based.

One may read the EC50 as the concentration at which the effect is half-maximal. A high value points to lower potency in that assay. At GPR119 [1], `CCCCCC1OC1C/C=C\C/C=C\C/C=C\CCCC(=O)NCCO` (centres unmarked) [14,15-EET-EA] came in with an EC50 of 3.74 µM.
For `CCCCCCCC/C=C\CCCCCCCC(=O)NCCO` [OEA], the “cAMP accumulation in heterologous expression system, positive control agonist” value on GPR119 [2] is listed as “OEA, the most potent endogenous agonist of GPR119, was used as the positive control”.

Values taken from article PMC12849875, “CYP4X1/sEH‐Dependent Endocannabinoid Metabolism Drives Fibroblast‐Mediated Immunosuppression to Limit Immunotherapy in Colon Cancer” (Advanced Science, 2025).
